What was measured:
ADP patients [1] = test: Twelve-week randomized, double-blind, placebo-controlled study in ADP patients: NPI-NH psychosis score (Domains A and B); format: in vivo, human; conditions: for improvement in psychosis at day 43 / improvement in psychosis at day 43 (NPI-NH Psychosis subscale): Table 2 Delta; for NPI-NH PSYCHOSIS SCORE at day 43, Effect Size: pimavanserin vs placebo
Excerpt: (§1) To determine the score for a given domain, the caregivers rate frequency and severity of the resident's behavior for that particular domain. The frequency is rated on a 0-4 point scale. For example, the frequency is rated as a) 0 for not present; b) 1 for occasional; c) 2 for often; d) 3 for frequent; and e) 4 for very frequent occurrence of the behavior in question. The severity is rated on a 1-3 point scale. For example, the severity is rated as a) 1 for mild; b) 2 for moderate; and 3 for severe. The score of each domain is determined by multiplying the frequency rating score by the severity rating score. The score of each domain ranges from 0 to 12.
A psychosis score on the psychosis subscale is the total score of the score of delusions (Domain A) and hallucinations (Domain B). For example, when the delusions score (Domain A) is 4 and the hallucinations score (Domain B) is 6, the psychosis score is 10. The psychosis score typically ranges from 0 to 24.
A twelve-week, randomized, double-blind, placebo-controlled, single-center study was conducted in ADP patients in nursing homes. A purpose of the study was to evaluate the safety and efficacy of 34 mg pimavanserin compared to placebo in the treatment of ADP.
A total of 181 nursing home patients were enrolled in the study and randomized on a one-to-one basis to receive either 34 mg of pimavanserin or placebo once daily for twelve weeks, following a three-week screening period including brief psycho-social therapy. Patients with Alzheimer's disease (AD) are defined by the National Institute of Neurological and Communicative Disorders and Stroke-Alzheimer's Disease and Related Disorder Association (NINCDS-ADRDA) criteria for possible or probable AD (McKhann et al., Neuro., 1984, vol. 34, 939-944.) The mean age of patients in the study was 86 years.
After completing initial Screening Visit procedures (SV1), patients entered a 3-week screening period with antipsychotic medication washout. During the screening period, the patients received brief psychosocial therapy (BPST; Ballard et al., 2009) following best practice guidelines and safety assessments were performed. After the first Screening Visit (SV1), there were two additional contacts at weekly intervals with the BPST caregiver by phone (SV2 and SV3) to support the patient and the BPST caregiver in this screening phase. Safety assessments were also collected during this phase. At the discretion of the investigator and upon consultation with the Medical Monitor, patients were randomized into the double-blind phase of the study at any time during the screening period if there is a substantial worsening of psychotic symptoms.
Patients were randomized to one of two treatment groups in a 1:1 ratio (pimavanserin 34 mg or placebo), stratified by Baseline Mini-Mental State Examination (MMSE) total score and Neuropsychiatric Inventory-Nursing Home Version (NPI-NH) psychosis score (Domains A and B) (4 levels: MMSE<6 and NPI-NH<12, MMSE>6 and NPI-NH<12, MMSE<6 and NPI-NH>12, MMSE>6 and NPI-NH>12), and entered a 12 week double-blind treatment period.
Nursing home staff administered the study drug to the patient each morning as a single oral dose (2×17 mg tablets) beginning within 24 hours of completion of all baseline assessments (Day 1). During the double-blind treatment period, study visits were performed as follows: Baseline, Day 15, Day 29, Day 43, Day 64, and Day 85 (or early termination). A follow-up telephone safety visit occurred 4 weeks after the last dose of study medication. The NPI-NH psychosis subscale (Delusions+Hallucinations domains) was used to assess psychosis. Behavioral symptoms were assessed using the NPI-NH Total and Individual Behavioral Domain scores and the Cohen-Mansfield Agitation Inventory—Short Form (CMAI-SF). […]

ADP patients [2] = test: Same twelve-week study: NPI-NH Agitation/Aggression subscale (Domain C); format: in vivo, human; conditions: pimavanserin arm; placebo arm 0.47
Excerpt: as §1
A twelve-week, randomized, double-blind, placebo-controlled, single-center study was conducted in ADP patients in nursing homes. […]
Nursing home staff administered the study drug to the patient each morning as a single oral dose (2×17 mg tablets) beginning within 24 hours of completion of all baseline assessments (Day 1). […] Behavioral symptoms were assessed using the NPI-NH Total and Individual Behavioral Domain scores and the Cohen-Mansfield Agitation Inventory—Short Form (CMAI-SF). […] In addition, evaluation of activities of daily living (ADL) was evaluated using the Alzheimer's Disease Cooperative Study-ADL instrument (ADCS-ADL). […]

[3] = test system: DOI ((±)-2,5-dimethoxy-4-iodoamphetamine, a serotonin agonist) induced head twitches; conditions: rat; effective in these models at oral doses of 3 and 10 mg/kg; cited from earlier work
[4] = test system: hyperactivity induced by the N-methyl-D-aspartate antagonist MK-801; conditions: mice; effective in these models at oral doses of 3 and 10 mg/kg; cited from earlier work

CC(C)COc1ccc(CNC(=O)N(Cc2ccc(F)cc2)C2CCN(C)CC2)cc1 [Pimavanserin, N-(1-methylpiperidin-4-yl)-N-(4-fluorophenylmethyl)-N′-(4-(2-methylpropyloxy)phenylmethyl)carbamide]
durability of efficacy (ADP patients [1]; 34 mg once daily, 12 week study): demonstrated an efficacy throughout the 12 week study | NPI-NH PSYCHOSIS SCORE at day 43, Pimavanserin Group (change from baseline) (ADP patients [1]; 34 mg once daily, subgroup Baseline Agitation/Aggression Score <6 (n = 85), post-hoc analysis): −1.40 | NPI-NH PSYCHOSIS SCORE at day 43, Pimavanserin Group (change from baseline) (ADP patients [1]; 34 mg once daily, subgroup Baseline Agitation/Aggression Score ≥6 (n = 93), post-hoc analysis): −6.09 | NPI-NH PSYCHOSIS SCORE at day 43, Pimavanserin Group (change from baseline) (ADP patients [1]; 34 mg once daily, subgroup Baseline NPI-NH Psychosis Score <12 (n = 57), negative = improvement): −0.58 | NPI-NH PSYCHOSIS SCORE at day 43, Pimavanserin Group (change from baseline) (ADP patients [1]; 34 mg once daily, subgroup Baseline NPI-NH Psychosis Score ≥12 & Agitation/Aggression Score ≥6 (n = 38), post-hoc analysis): −10.93 | NPI-NH PSYCHOSIS SCORE at day 43, Pimavanserin Group (change from baseline) (ADP patients [1]; 34 mg once daily, subgroup Baseline NPI-NH Psychosis score ≥12 (n = 121), negative = improvement): −10.15 | NPI-NH PSYCHOSIS SCORE at day 43, Pimavanserin Group (change from baseline) (ADP patients [1]; 34 mg once daily, subgroup No Prior Anti-psychotic use (n = 162)): −4.15 | NPI-NH PSYCHOSIS SCORE at day 43, Pimavanserin Group (change from baseline) (ADP patients [1]; 34 mg once daily, subgroup Prior Anti-psychotic use (n = 16)): −1.52 | improvement in psychosis, NPI-NH Psychosis score (combined hallucinations and delusions domains), primary endpoint (ADP patients [1]; 34 mg once daily, week 6, all patients, baseline mean 9.52, placebo 1.93 point, p=0.0451): 3.76 point | improvement in psychosis at day 43 (ADP patients [1]; baseline NPI-NH Psychosis score of 12 or greater and baseline Agitation/Aggression score of 6 or greater, p-value=0.0010): 7.18 | effect on NPI-NH psychosis score (in words) (ADP patients [1]; baseline NPI-NH psychosis score of 12 or greater and baseline Agitation/Aggression score of 6 or greater, p=0.0010): effectively reduced | improvement in psychosis at day 43 (ADP patients [1]; patients having a baseline NPI-NH Agitation/Aggression score of 6 or greater, p-value=0.0010): 4.41 point | effect on NPI-NH psychosis score (in words) (ADP patients [1]; patients having a baseline NPI-NH Agitation/Aggression score of 6 or greater, p=0.001): effectively reduced | aggravating in psychosis at day 43 (ADP patients [1]; patients having a baseline NPI-NH Agitation/Aggression score of less than 6, p-value=NS): 0.42 | improvement in psychosis at day 43 (NPI-NH Psychosis subscale) (ADP patients [1]; patients having a baseline NPI-NH Psychosis score of 12 or greater, p-value=0.0114): 4.43 point | effect on NPI-NH psychosis score (in words) (ADP patients [1]; patients having a baseline NPI-NH psychosis score of 12 or greater, p=0.0114): effectively reduced | improvement in psychosis at day 43 (NPI-NH Psychosis subscale) (ADP patients [1]; patients having a baseline NPI-NH psychosis score of less than 12, p-value=NS): 0.42 | improvement in psychosis at day 43 (ADP patients [1]; patients that had anti-psychotic use prior to the baseline measurement on day 0, p-value=NS): 6.53 point | effect on NPI-NH psychosis score (in words) (ADP patients [1]; patients who had prior anti-psychotic use): effectively reduced | reduction of mean NPI-NH Psychosis score from baseline (ADP patients [1]; pimavanserin arm, baseline NPI-NH Psychosis score of 12 or greater, baseline 15.30, day 43): 66.3% | mean NPI-NH Psychosis score at day 43 (ADP patients [1]; pimavanserin arm, baseline NPI-NH Psychosis score of 12 or greater, baseline score 15.30): 5.15 | NPI-NH PSYCHOSIS SCORE at day 43, Effect Size (ADP patients [1]; subgroup Baseline Agitation/Aggression Score <6 (n = 85), post-hoc): 0.122 | NPI-NH PSYCHOSIS SCORE at day 43, Effect Size (ADP patients [1]; subgroup Baseline Agitation/Aggression Score ≥6 (n = 93), post-hoc): −0.778 | NPI-NH PSYCHOSIS SCORE at day 43, Effect Size (ADP patients [1]; subgroup Baseline NPI-NH Psychosis Score <12 (n = 57)): −0.077 | NPI-NH PSYCHOSIS SCORE at day 43, Effect Size (ADP patients [1]; subgroup Baseline NPI-NH Psychosis Score ≥12 & Agitation/Aggression Score ≥6 (n = 38), post-hoc): −1.225 | NPI-NH PSYCHOSIS SCORE at day 43, Effect Size (ADP patients [1]; subgroup Baseline NPI-NH Psychosis score ≥12 (n = 121)): −0.734 | NPI-NH PSYCHOSIS SCORE at day 43, Effect Size (ADP patients [1]; subgroup No Prior Anti-psychotic use (n = 162)): −0.351 | NPI-NH PSYCHOSIS SCORE at day 43, Effect Size (ADP patients [1]; subgroup Prior Anti-psychotic use (n = 16)): −0.905 | NPI-NH PSYCHOSIS SCORE at day 43, Delta (difference between placebo group and pimavanserin group in change from baseline) (ADP patients [1]; subgroup Baseline Agitation/Aggression Score <6 (n = 85), post-hoc, P-Value NS): 0.68 | NPI-NH PSYCHOSIS SCORE at day 43, Delta (difference between placebo group and pimavanserin group in change from baseline) (ADP patients [1]; subgroup Baseline Agitation/Aggression Score ≥6 (n = 93), post-hoc, P-Value 0.0010): −4.41 | NPI-NH PSYCHOSIS SCORE at day 43, Delta (difference between placebo group and pimavanserin group in change from baseline) (ADP patients [1]; subgroup Baseline NPI-NH Psychosis Score <12 (n = 57), P-Value NS): −0.42 | NPI-NH PSYCHOSIS SCORE at day 43, Delta (difference between placebo group and pimavanserin group in change from baseline) (ADP patients [1]; subgroup Baseline NPI-NH Psychosis Score ≥12 & Agitation/Aggression Score ≥6 (n = 38), post-hoc, P-Value 0.0010): −7.18 | NPI-NH PSYCHOSIS SCORE at day 43, Delta (difference between placebo group and pimavanserin group in change from baseline) (ADP patients [1]; subgroup Baseline NPI-NH Psychosis score ≥12 (n = 121), P-Value 0.0114): −4.43 | NPI-NH PSYCHOSIS SCORE at day 43, Delta (difference between placebo group and pimavanserin group in change from baseline) (ADP patients [1]; subgroup No Prior Anti-psychotic use (n = 162), P-Value 0.0374): −1.90 | NPI-NH PSYCHOSIS SCORE at day 43, Delta (difference between placebo group and pimavanserin group in change from baseline) (ADP patients [1]; subgroup Prior Anti-psychotic use (n = 16), P-Value NS): −6.53 | treatment effect in patients with a concomitant Selective Serotonin Reuptake Inhibitor (SSRI) use (ADP patients [1]; subgroup analysis, compared with no concomitant SSRI use): treatment effect larger than those with no concomitant SSRI use | efficacious effect relative to placebo (ADP patients [1]; worded as an embodiment): about 2 times | improvement on the Agitation/Aggression subscale (Domain C) of the NPI-NH (ADP patients [2]): 1.13 points | activity in DOI induced head twitches [3]: active | attenuation of hyperactivity induced by MK-801 [4]: active
